One test addresses MOZ enzyme (Homo sapiens (Human), UniProt Q92794). In words: Moz biochemical assay (AlphaScreen histone H4 peptide acetylation). Background: Bead proximity is the source of the signal in Alpha formats.
For another test, the system named is INK4a and ARF null cells. In words: Bioassay 1 repeated in INK4a and ARF null cells. As to conditions: 1 μM, 2 μM, 5 μM, 10 μM. Type of test: cell-based. As for the experimental part:
Cells are plated in triplicate cultures at 10,204 cells/cm^2 in the presence of a test compound. Compounds are tested at 500 nM, 1 μM, 2 μM, 5 μM, 10 μM and 20 μM. Control compounds include those that have a similar structure but show no activity in biochemical assays. After 48 hours, cells are passaged and counted, then replated at 10,204/cm^2. This procedure is continued for 336 hours. The total number of cells produced at each passage is then calculated and compared between treatment groups. […] Cells are analysed by flow cytometry for the absence of markers of apoptosis by staining with propidium iodide and FITC-conjugated annexin V. The level of DNA damaged is assessed by γH2A.X staining, a marker of DNA strand breaks.
The mechanism of action of these compounds, i.e. causing cell cycle arrest and senescence, was confirmed by repeating this assay using cells in which the INK4a/ARF pathways was inactivated by genetic deletion of a key exon common to both INK4a and the alternative splice product of the CDKN2a locus ARF.

Another test has as its system Cdc6 mRNA. In words: Bioassay 2: RT-qPCR of MOZ target genes in mouse embryonic fibroblasts. Type of test: cell-based. Particulars: 5 μM. As for the experimental part: Mouse embryonic fibroblasts are isolated from wild type or Moz heterozygous animals and cultured at 3% oxygen/5% carbon dioxide/92% nitrogen. Cells are plated at a density of 1,020 cells/cm^2 or 2,040 cells/cm^2 or 10,204 cells/cm^2. A reference value for MOZ inhibition is generated through comparison with cells with a complete null mutation of MOZ. The absence of a functional Moz gene leads to senescence in 7-14 days at 3% oxygen.
Cells are plated in triplicate at 2,040 cells/cm^2 in the presence of a test compound. Compounds are tested at 500 nM, 1 μM, 2 μM, 5 μM, 10 μM and 20 μM. Control compounds include those that have a similar structure but show no activity in biochemical assays. […] RT-qPCR is used to assay the levels of MOZ target genes Ink4a, ink4b, Arf, Cdc6, Cdca8, Cdca2, E2f2, Ezh2, Skp2 and Melk.
For orientation: Real-time PCR tracks product formation cycle by cycle.

Another test concerns wild type pro-B cells. In words: Bioassay 5: pro-B cell colony formation in methylcellulose, wild type. Type of test: cell-based. As for the experimental part:
(§1) Pro-B cells are purified by positive selection using antiCD19-magnetic beads and fluorescence activated cell sorting using the criterion: cell surface expression of B220, CD19 and cKit but not IgM. After purification, 25,000 pro-B cells are seeded onto 3.5 cm culture dishes plate containing methylcellulose (MethoCult M3630, STEM CELL technologies) for 7 days. After 7 days culture, colonies in which there were more than 50 cells are counted. Subsequently, 190,000 pro-B cells are replated into methylcellulose for another 7 days of culture, followed by enumeration.

The subject of test [1] is Wild type pre B cells. In words: Bioassay 8: cell cycle analysis (DNA content and Ki67). Type of test: cell-based. As to conditions: 1 μM. As for the experimental part: Pre B cells are isolated from bone marrow according to the criterion: cell surface expression of B220, CD19, but not cKit or IgM. Pre-B cells are cultured on OP9 cells with IL7 in the presence of compounds at various concentrations. The stages of the cell cycle in cultured pre-B cells with and without treatment is analysed by flow cytometry using a stain for DNA content combined with the cell cycle marker Ki67 to enumerate the proportion of cells in different phases of the cell cycle.

In the next test the test system is wild type pre-B cells. In words: Bioassay 9: cell cycle analysis (DNA content and BrdU). As to conditions: 1 μM. Type of test: cell-based. As for the experimental part:
Pre B cells are isolated from bone marrow according to the criterion: cell surface expression of B220, CD19, but not cKit or IgM. Pre-B cells are cultured on OP9 cells with IL7 in the presence of compounds at various concentrations. The stages of the cell cycle in pre-B cells with and without treatment is analysed using flow cytometry to assay, using a stain for DNA content combined with BrdU to determine the proportion of cells in S phase.

The test system of test [2] is Wild type pre B cells. In words: Bioassay 7: pre-B cell number dose response, wild type. Particulars: in words. The format is cell-based. On the procedure: Pre B cells are isolated from bone marrow according to the criterion: cell surface expression of B220, CD19, but not cKit or IgM. Pre-B cells are cultured on OP9 cells with IL7 in the presence of compounds at concentrations from 0.01 μM to 20 μM in vitro for 4 days. Cell number is then enumerated and an IC50 is calculated.

In test [3] the test system is Eμ-Myc pre-leukemia pro-B cells. In words: Bioassay 5: pro-B cell colony formation in methylcellulose, Eμ-Myc. Type of test: cell-based. As to conditions: 1 μM, Eμ-Myc pre-leukemia pro-B cells. On the procedure: as §1
For another test, the system named is B cell lineage. In words: Bioassay 10: effect on the B cell lineage in treated mice. Type of test: in vivo. Particulars: for numbers of pre B cells in the bone marrow: in words, daily I.P. injection; for immature B cells, percentage of WBC per femur / mature B cells, percentage of WBC per femur / pre-B cells, percentage of WBC per femur / pro-B cells, percentage of WBC per femur: wild type mice, 50 mg/kg I.P. daily. On the procedure: Mice were treated with compounds at the dosage of 50 mg/kg by I.P injection. Compounds are prepared for injection as a slurry in 50% PEG400/H2O. The effect on the B cell lineage is determined by fluorescent cytometry using characteristic cell surface markers expressed at different stages of B cell development.

Consider 36 compounds from patent US10829446B2, “Aryl sulfonohydrazides” (MONASH UNIVERSITY, priority 2015, dated 2020).

Structures are written as SMILES. pIC50: −log10 of the molar value.

Usually pIC50 stands for −log10 of the IC50, conventionally taken in molar units. A high value points to a small IC50.

Sequence of MOZ enzyme (Q92794 whole entry, species assumed): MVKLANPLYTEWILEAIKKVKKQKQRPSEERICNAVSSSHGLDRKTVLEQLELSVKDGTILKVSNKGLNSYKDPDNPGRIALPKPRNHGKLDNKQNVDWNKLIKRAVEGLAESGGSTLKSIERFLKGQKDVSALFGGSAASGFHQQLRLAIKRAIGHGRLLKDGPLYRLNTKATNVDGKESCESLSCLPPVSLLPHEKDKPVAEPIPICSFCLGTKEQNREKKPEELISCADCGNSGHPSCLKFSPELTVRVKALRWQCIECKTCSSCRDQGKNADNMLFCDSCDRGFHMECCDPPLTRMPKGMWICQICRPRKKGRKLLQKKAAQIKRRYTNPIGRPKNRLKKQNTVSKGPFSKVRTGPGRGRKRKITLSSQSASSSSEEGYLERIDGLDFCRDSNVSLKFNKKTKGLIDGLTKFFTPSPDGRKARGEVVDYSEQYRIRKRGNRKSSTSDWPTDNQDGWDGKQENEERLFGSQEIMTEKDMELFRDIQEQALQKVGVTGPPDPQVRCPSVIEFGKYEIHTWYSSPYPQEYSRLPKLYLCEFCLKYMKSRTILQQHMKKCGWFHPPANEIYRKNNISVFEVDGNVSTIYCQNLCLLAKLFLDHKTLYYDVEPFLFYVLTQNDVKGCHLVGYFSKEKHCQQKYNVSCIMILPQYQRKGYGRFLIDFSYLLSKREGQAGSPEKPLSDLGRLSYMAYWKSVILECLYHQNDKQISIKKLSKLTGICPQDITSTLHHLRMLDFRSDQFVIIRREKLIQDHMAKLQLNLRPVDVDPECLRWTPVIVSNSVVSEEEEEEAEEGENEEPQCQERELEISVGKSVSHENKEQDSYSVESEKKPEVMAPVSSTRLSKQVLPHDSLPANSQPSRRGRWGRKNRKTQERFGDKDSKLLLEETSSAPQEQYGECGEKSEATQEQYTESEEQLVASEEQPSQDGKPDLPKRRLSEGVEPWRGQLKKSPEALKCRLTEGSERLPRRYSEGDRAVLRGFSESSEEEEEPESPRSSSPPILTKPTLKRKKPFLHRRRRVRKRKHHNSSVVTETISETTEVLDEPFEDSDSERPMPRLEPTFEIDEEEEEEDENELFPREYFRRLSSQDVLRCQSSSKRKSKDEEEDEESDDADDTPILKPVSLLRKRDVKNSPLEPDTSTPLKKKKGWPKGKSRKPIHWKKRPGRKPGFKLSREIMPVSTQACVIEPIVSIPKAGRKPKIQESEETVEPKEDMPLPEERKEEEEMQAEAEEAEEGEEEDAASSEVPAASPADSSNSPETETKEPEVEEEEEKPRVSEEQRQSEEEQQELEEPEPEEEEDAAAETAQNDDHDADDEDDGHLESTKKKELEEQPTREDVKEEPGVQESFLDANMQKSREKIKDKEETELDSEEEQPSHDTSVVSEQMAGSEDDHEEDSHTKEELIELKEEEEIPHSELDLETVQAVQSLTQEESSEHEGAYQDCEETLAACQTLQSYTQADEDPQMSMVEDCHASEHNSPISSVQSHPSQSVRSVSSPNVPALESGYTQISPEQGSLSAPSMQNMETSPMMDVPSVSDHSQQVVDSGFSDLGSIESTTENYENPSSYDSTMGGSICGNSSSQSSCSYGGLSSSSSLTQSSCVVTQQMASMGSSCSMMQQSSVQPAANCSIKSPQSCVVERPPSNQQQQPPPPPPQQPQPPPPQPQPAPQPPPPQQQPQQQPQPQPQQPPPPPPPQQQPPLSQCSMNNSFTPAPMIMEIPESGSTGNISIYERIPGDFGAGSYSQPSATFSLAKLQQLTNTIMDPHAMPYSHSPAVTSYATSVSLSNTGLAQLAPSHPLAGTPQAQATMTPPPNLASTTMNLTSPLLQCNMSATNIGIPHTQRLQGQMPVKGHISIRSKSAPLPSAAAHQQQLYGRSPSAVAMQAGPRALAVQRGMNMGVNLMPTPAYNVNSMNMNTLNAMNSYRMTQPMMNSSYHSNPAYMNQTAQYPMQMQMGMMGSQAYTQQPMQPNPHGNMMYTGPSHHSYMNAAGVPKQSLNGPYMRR

In turn, `O=C(NNS(=O)(=O)c1ccccc1)c1cc(-c2ccc(F)cc2)ccc1F` [Compound 133] showed a pIC50 against MOZ enzyme of 6.08.
Same read-out and setting: as for `O=C(NNS(=O)(=O)c1ccccc1)c1ccnc(-c2ccccc2)c1` [Compound 106], the figure is 4.72; as for `O=C(NNS(=O)(=O)c1ccccc1)c1cccc(-c2ccccc2F)c1` [Compound 29], 6.26; as for `O=C(NNS(=O)(=O)c1ccccc1)c1cc(-c2ccccc2)ccc1F` [Compound 157], 7.77.
The same measure, in the same setting: as for `N#Cc1cccc(-c2cccc(C(=O)NNS(=O)(=O)c3ccccc3)c2)c1` [Compound 31], the figure is 5.07; as for `O=C(NNS(=O)(=O)c1ccccc1)c1cccc(-c2ccccc2)n1` [Compound 116], 4.78; as for `O=C(NNS(=O)(=O)c1ccccc1)c1cccc(-c2cccc(F)c2)c1` [Compound 30], 6.14.
The compound `O=C(NNS(=O)(=O)c1ccccc1)c1cc(-c2cccs2)cc(Cl)c1F` [Compound 37] showed a pIC50 at MOZ enzyme of 4.07. Further, in the test with INK4a and ARF null cells, the “inhibition of cell proliferation” value is listed as “no inhibition of cell proliferation was detected”.
Compound `O=C(NNS(=O)(=O)c1ccccc1)c1cccc(-c2ccc(F)cc2)c1` [Compound 25] showed a pIC50 on MOZ enzyme of 5.42.
Take `O=C(NNS(=O)(=O)c1ccccc1F)c1cc(F)cc(-n2cccn2)c1` [Compound 64]: the “CDC6 mRNA % control” value in the test with Cdc6 mRNA came to 60.9%.
Consider `O=C(NNS(=O)(=O)c1ccccc1)c1cccc(-c2ccc(Cl)cc2)c1` [Compound 32], for which the pIC50 against MOZ enzyme was 4.59.
For `O=C(NNS(=O)(=O)c1ccccc1)c1cc(-c2ccnnc2)ccc1F` [Compound 108], the colony number in the test on wild type pro-B cells (1 μM, wild type pro-B cells, primary colonies) came to 245.125. Further, the “colony number, secondary colony formation” value with wild type pro-B cells (1 μM, wild type pro-B cells, secondary colony formation) is on record as 77. The colony formation entry with wild type pro-B cells (in words, compared to vehicle) was “inactive”. Also, in the test on Wild type pre B cells [1] (cultured for 4 days), the “cells in G0” value amounted to 10.8%, the “cells in G1” value is listed as 53.7%, the “cells in G2/M” value is 12.1% and the “cells in S” value was 23.6%. Besides, in the test on Wild type pre B cells [1] (cultured for 6 days), the “cells in G0” value is reported as 8.6%, the “cells in G1” value came to 62.0%, the “cells in G2/M” value was 8.5% and the “cells in S” value is on record as 14.7%. In the test with wild type pre-B cells, the “cells in G0/G1 (BrdU)” value is 44.2, the “cells in G2/M (BrdU)” value was 5.2 and the “cells in S (BrdU)” value amounted to 46.2. For the same compound, in the test with Wild type pre B cells [2], the “effect on pre B cell proliferation” value is reported as “has no effect”. In addition, the colony number in [3] (primary colonies) is on record as 180.5. Besides, the “colony number, secondary colony formation” value in test [3] (secondary colony formation) was found to be 78.
`COc1cccc(-c2cccc(C(=O)NNS(=O)(=O)c3ccccc3)c2)c1` [Compound 28] had a pIC50 at MOZ enzyme of 5.49.
The same measure, in the same setting: as for `O=C(NNS(=O)(=O)c1ccccc1)c1cc(-c2ccccc2)cc(Cl)c1F` [Compound 35], the figure is 7.09.
Same read-out and setting: as for `CC(C)c1cccc(C(=O)NNS(=O)(=O)c2ccc3ccccc3c2)c1` [Compound 3], the figure is 5.11; as for `O=C(NNS(=O)(=O)c1ccccc1)c1cccc(I)c1` [Compound 6], 5.69; as for `O=C(NNS(=O)(=O)c1ccccc1)c1cccc(-c2ccsc2)c1` [Compound 8], 6.79.
On the same count and under the same terms, as for `Cc1cc(-n2cccn2)c(F)c(C(=O)NNS(=O)(=O)c2ccccc2)c1F` [Compound 155], the figure is 7.15; as for `O=C(NNS(=O)(=O)c1ccc2ccccc2c1)c1cccc(-c2ccccc2)c1` [Compound 1], 5.53.
`O=C(NNS(=O)(=O)c1ccccc1)c1cccc(-c2cc[nH]n2)c1` [Compound 7] showed a pIC50 against MOZ enzyme of 5.13.
The same measure, in the same setting: next, `O=C(NNS(=O)(=O)c1ccccc1)c1cccc(-c2ccccc2)c1F` [Compound 33]: 6.57.
As for `Cc1cc(-c2ncccn2)cc(C(=O)NNS(=O)(=O)c2ccccc2)c1F` [Compound 53], the “CDC6 mRNA % control” value with Cdc6 mRNA was determined as 62.8%.
As for `O=C(NNS(=O)(=O)c1ccccc1)c1cncc(-c2ccccc2)c1` [Compound 109], the negative logarithm of the IC50 (pIC50) against MOZ enzyme is 4.67.
`Cc1cccc(C(=O)NNS(=O)(=O)c2ccc3ccccc3c2)c1F` [Compound 4] gave a negative logarithm of the IC50 (pIC50) on MOZ enzyme of 6.71.
Turning to `COc1ccccc1-c1cccc(C(=O)NNS(=O)(=O)c2ccccc2)c1` [Compound 27], at MOZ enzyme, the pIC50 was 4.95.
On the same count and under the same terms, as for `Cc1cccc(C(=O)NNS(=O)(=O)c2ccc3ccccc3c2)c1` [Compound 148], the figure is 5.75; as for `O=C(NNS(=O)(=O)c1ccccc1)c1cccc(-c2ccccc2)c1` [Compound 2], 6.54; as for `O=C(NNS(=O)(=O)c1ccccc1)c1cccc(-c2ccccc2Cl)c1` [Compound 34], 5.10.
On to `O=C(NNS(=O)(=O)c1ccccc1F)c1cc(F)cc(-c2ccccn2)c1` [Compound 46], for which, in the test on B cell lineage, the “numbers of pre B cells in the bone marrow” value is recorded as “markedly reduced numbers of pre B cells in the bone marrow”; the “immature B cells, percentage of WBC per femur” value was 3.33%; the “mature B cells, percentage of WBC per femur” value was found to be 3.65%; the “pre-B cells, percentage of WBC per femur” value turned out to be 10.59%. Moreover, the “pro-B cells, percentage of WBC per femur” value with B cell lineage turned out to be 1.14%.
At MOZ enzyme, `Cc1cc(-c2ccccc2)c(F)c(C(=O)NNS(=O)(=O)c2ccccc2)c1F` [Compound 154] showed a negative-log IC50 (pIC50) of 8.00.
`CCOc1cc(C)cc(C(=O)NNS(=O)(=O)c2ccccc2F)c1` [Compound 137]: in the test with B cell lineage, the “numbers of pre B cells in the bone marrow” value is listed as “markedly reduced numbers of pre B cells in the bone marrow”; the “immature B cells, percentage of WBC per femur” value stood at 3.92%; the “mature B cells, percentage of WBC per femur” value is listed as 3.16%; the “pre-B cells, percentage of WBC per femur” value is recorded as 12.71%. Further, in the test on B cell lineage, the “pro-B cells, percentage of WBC per femur” value worked out at 1.01%. In addition, the “CDC6 mRNA % control” value with Cdc6 mRNA was 67.5%.
As to `O=C(NNS(=O)(=O)c1ccccc1)c1cccc(-c2cccs2)c1` [Compound 14], on MOZ enzyme, the negative logarithm of the IC50 (pIC50) was 6.33.
Still for that read-out and setting: next, `O=C(NNS(=O)(=O)c1ccccc1F)c1cccc(OCC2CC2)c1` [Compound 90]: 6.94; `O=C(NNS(=O)(=O)c1ccccc1)c1cccc(-c2cccnc2)c1` [Compound 98]: 4.88.
On the same count and under the same terms, as for `O=S(=O)(NNCc1cccc(-c2cccc(Cl)c2)c1)c1ccccc1` [Compound 147], the figure is 4.04; as for `COc1ccc(-c2cccc(C(=O)NNS(=O)(=O)c3ccccc3)c2)cc1` [Compound 26], 4.40.
